The test system of series [1] is Bacillus subtilis A. Description: MIC, method of Example 30 with 1/100 dilution of overnight broth (Example 46).
Description: (§1) The cultures were incubated overnight and the points of bacterial growth recorded next morning by observing the turbidity of the culture.
Series [2] concerns Escherchia coli 10418. The series is described as above.
Description: as §1
The test system of series [3] is Staph. aureus Russell. The series is described as above.
Description: as §1
The subject of series [4] is strains of Klebsiella aerogenes (A, E 70, 62). Put plainly: Growth inhibition of the test organisms of Table 8 by the esters alone. The conditions noted are these: read-out: concentration at which growth of the test organisms was not inhibited.
Description: The final dilution of the inoculum was 0.5 ×10^-2. The tray was incubated at 37° C overnight and a record made next morning of the end points of bacterial growth.
The test system of series [5] is Staph. aureus Oxford. Description: MIC, method of Example 30 with 1/100 dilution of overnight broth (Example 46).
Description: as §1
Series [6] relates to Klebsiella aerogenes A. Put plainly: MIC / synergism, microtitre method (Example 42). The class given is cell-based. The conditions noted are these: for Antibacterial synergism value, +5μg/ml. synergist (M.I.C. by method of Example 42): +5μg/ml. synergist (clavulanic acid sodium salt); for MIC: Klebsiella aerogenes, Alone (Tables 7, 8), Example 42 records M.I.C. in μg/ml, read-out: Antibacterial synergism value, Alone (M.I.C. by method of Example 42).

In series [7] the test system is Klebsiella aerogenes E 70. Description: MIC / synergism, microtitre method (Example 42). The series is classed as cell-based. To be noted: for Antibacterial synergism value, +5μg/ml. synergist (M.I.C. by method of Example 42): +5μg/ml. synergist (clavulanic acid sodium salt); for MIC: Klebsiella aerogenes.
The test system of series [8] is Klebsiella aerogenes A. Put plainly: Growth inhibition / synergism. To be noted: for MIC: Klebsiella aerogenes, agent alone, read-out: concentration in whose presence growth is not inhibited; for concentration inhibiting growth when 5 μg/ml. of clavulanic acid is also present: plus 5 μg/ml clavulanic acid. The series is classed as cell-based.
The test system of series [9] is Klebsiella aerogenes 62. Put plainly: MIC / synergism, microtitre method (Example 42). The class given is cell-based. To be noted: for Antibacterial synergism value, +5μg/ml. synergist (M.I.C. by method of Example 42): +5μg/ml. synergist (clavulanic acid sodium salt); for MIC: Klebsiella aerogenes, 62, Alone (Tables 7, 8), Example 42 records M.I.C. in μg/ml, read-out: Antibacterial synergism value, Alone (M.I.C. by method of Example 42).

Series [10] has as its system Staphylococcus aureus. Description: MIC / synergism, microtitre method (Example 42). The series is classed as cell-based. To be noted: for MIC: Staphylococcus aureus, agent alone (Tables 5, 6), inoculum final dilution 0.5 ×10^-2, 37° C overnight, read-out: Minimum Inhibitory Concentration.
Series [11] deals with Escherichia coli NCTC 10481. Description: MIC / synergism, microtitre method (Example 42). The series is classed as cell-based. To be noted: NCTC10481, agent alone, inoculum final dilution 0.5 ×10^-2, 37° C overnight, read-out: Minimum Inhibitory Concentration.
Series [12] deals with Staphylococcus aureus (Russell). Put plainly: M.I.C. synergism with clavulanic acid methyl ester (Example 32). The series is classed as cell-based.
Series [13] deals with Staphylococcus aureus Russell. Description: Growth inhibition / synergism. To be noted: for MIC: Staphylococcus aureus, agent alone, read-out: concentration in whose presence growth is not inhibited. The series is classed as cell-based.
In series [14] the test system is Proteus mirabilis C889. Put plainly: M.I.C. synergism with clavulanic acid methyl ester (Example 32). The class given is cell-based. To be noted: plus 5 μg/ml clavulanic acid methyl ester.
Series [15] has as its system Serratia marcescens. Put plainly: MIC / synergism, microtitre method (Example 42). The class given is cell-based. To be noted: agent alone, inoculum final dilution 0.5 ×10^-2, 37° C overnight, read-out: Minimum Inhibitory Concentration.
Series [16] relates to Proteus mirabilis 899. Description: microbe, parasite or virus in culture. To be noted: method of Example 42. The series is classed as cell-based.
The subject of series [17] is Staphylococcus aureus (Russell). Put plainly: MIC / synergism, microtitre method (Example 42). The class given is cell-based.
Series [18] concerns bacteria. Description: Tests for antibacterial activity in broth (Example 32). The series is classed as cell-based. The conditions noted are these: may be due to clavulanic acid liberated by hydrolysis.
The nature of series [19]: Hydrolysis of the methyl ester to clavulanic acid in pH 7 buffer. The class given is physicochemical. On the procedure:
The reaction was followed by paper chromatography (bioautographic system). Using the butanol/ethanol/water system to follow the reaction over a period of 2 hours the zone of the methyl ester at Rf 0.79 decreased in size as the zone of clavulanic acid at Rf 0.12 increased.

In series [20] the target is T1, β-lactamase produced by Escherichia coli JT4 (Escherichia coli, UniProt P62593).
T1 construct: This cell suspension was then disrupted in an MSE ultrasonic disintegrator; endogenous in cells; supernatant of sonicated cells
Put plainly: β-lactamase inhibition assay (Description 1). The series is classed as biochemical.
Description: Solutions containing clavulanic acid (culture filtrate, samples from isolation procedure and the like) are incubated for 15 minutes with a β-lactamase preparation in 0.05M phosphate buffer at pH 7 and 37° C. During this time, enzyme inhibition or inactivation occurs. Substrate (benzylpenicillin) is then added and incubation continued for 30 minutes at 37° C. The amount of enzymic degradation of the substrate to penicilloic acid is determined by the hydroxylamine assay for penicillin. The amount of β-lactamase used is such as to give 75% hydrolysis of the benzylpenicillin in 30 minutes at 37° C.
The extent of hydrolysis is a reflection of the amount of enzyme remaining uninhibited.
The β-lactamase produced by Escherichia coli JT4 is used as an enzyme. […] Other similar R-factor controlled β-lactamases may be used if desired.
For use in the assay procedure, the supernatant is diluted in 0.005M phosphate buffer until it gives about 75% hydrolysis of a 1 mg/ml. solution of benzylpenicillin in 30 minutes at 37° C.
Suitable dilutions of the inhibitor preparation and β-lactamase solution are mixed and incubated at 37° C for 15 minutes (Test). […] The absorption of the final solutions is measured in an E.E.L. Colorimeter or a Spectrophotometer at 490 nm against the reagent blank.
The percentage inhibition of the β-lactamase is calculated as follows […]

The mark [21] stands for this setting: heavy inoculum, 1/100 dilution of overnight broth, Example 30 records MIC in μg/ml.
Setting [22] is: with 5 μg/ml of benzyl ester of clavulanic acid.
Where [23] appears, read: with 5 μg/ml of methyl ester of clavulanic acid.
The mark [24] stands for this setting: plus 5 μg/ml clavulanic acid sodium salt, method of Example 42.

The source of these data is patent US4060530A, “Clavulanic acid amides” (Beecham Group Limited, priority 1975, dated 1977).

Each structure is given as a SMILES string. Values after ≈ are worked out from the molar mass of the structure shown. Where two headings read alike, the source gives them in different places. Where only a bound is given, the exact number is not on record here.

T1 sequence (P62593 24-286 limits assumed): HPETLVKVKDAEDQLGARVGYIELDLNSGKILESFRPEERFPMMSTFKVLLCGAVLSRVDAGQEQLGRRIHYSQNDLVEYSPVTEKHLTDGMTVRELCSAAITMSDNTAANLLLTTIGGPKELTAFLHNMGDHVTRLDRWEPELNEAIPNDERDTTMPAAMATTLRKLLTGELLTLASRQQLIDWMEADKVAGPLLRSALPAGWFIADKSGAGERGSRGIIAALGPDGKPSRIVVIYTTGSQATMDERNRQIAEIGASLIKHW

Take `O=C(OCc1ccccc1)[C@H]1/C(=C/CO)O[C@@H]2CC(=O)N21` [Benzyl ester, benzyl ester of 3-(β-hydroxyethylidine)-7-oxo-4-oxa-1-azabicyclo [3,2,0]heptane-2-carboxylic acid]: the MIC in series [1] (Bacillus subtilis) was 250 µg/mL (≈ 864 µM); in [2], 125 µg/mL (≈ 432 µM); in [3] (Staphylococcus aureus) it was 125 µg/mL (≈ 432 µM); in series [4], more than 100 µg/mL; in [5] (Staphylococcus aureus), 62 µg/mL (≈ 214 µM).

In the case of `CC1(C)S[C@@H]2[C@H](NC(=O)Cc3ccccc3)C(=O)N2[C@H]1C(=O)O` [Benzylpenicillin, benzylpenicillin], the “Antibacterial synergism value, +5μg/ml. synergist (M.I.C. by method of Example 42)” value in series [6] stood at 7.8; in series [7], 15.6; in [9], 15.6. For the same compound, the MIC in series [6] was 250 µg/mL; in series [7] (E70, read-out: Antibacterial synergism value, Alone (M.I.C. by method of Example 42)) it was 500 µg/mL; in series [8], more than 125 µg/mL; in series [9], 250 µg/mL. For the same compound, in [8], the “concentration inhibiting growth when 5 μg/ml. of clavulanic acid is also present” value is reported as “less than 12.5 μg/ml”.

Consider `CCCCCCCCCOC(=O)[C@H]1/C(=C/CO)O[C@@H]2CC(=O)N21` [Nonyl ester, Nonyl Clavulanate], for which the MIC in series [1] (Bacillus subtilis) turned out to be 31 µg/mL (≈ 95.3 µM); in series [2], 250 µg/mL (≈ 768 µM); in series [3] (Staphylococcus aureus) it was 31 µg/mL (≈ 95.3 µM); in [5] (Staphylococcus aureus), 31 µg/mL (≈ 95.3 µM).

In the case of `O=C1OC(OC(=O)[C@H]2/C(=C/CO)O[C@@H]3CC(=O)N32)c2ccccc21` (stereo partly shown) [Phthalidyl ester, Clavulanic Acid Phthalide Esters], the MIC is recorded as 125 in series [1] (setting [21]), 125 in [2] (setting [21]), 15 in series [3] (setting [21]) and 31 in [5] (setting [21]).

In the case of `CC(C)(C)C(=O)OCOC(=O)[C@H]1/C(=C/CO)O[C@@H]2CC(=O)N21` [Pivaloyloxymethyl ester, Pivaloyloxymethyl Clavulanate], the MIC in [1] (Bacillus subtilis) was found to be 62 µg/mL (≈ 198 µM); in [2] it was 125 µg/mL (≈ 399 µM); in series [3] (Staphylococcus aureus) it was 62 µg/mL (≈ 198 µM); in series [5] (Staphylococcus aureus), 31 µg/mL (≈ 98.9 µM).

For the compound `CC1(C)S[C@@H]2[C@H](NC(=O)[C@H](N)c3ccccc3)C(=O)N2[C@H]1C(=O)O` [ampicillin], the MIC in series [10] is 250 µg/mL; in series [11], 1.8 µg/mL; in series [13], more than 100 µg/mL; in series [15], more than 500 µg/mL. Besides, the “Ampicillin 5 μg/ml of Benzyl Ester of clavulanic acid (M.I.C. by method of Example 42)” value in [6] (setting [22]) is on record as 1.9; in [7] (setting [22]), 3.9; in [9] (setting [22]), 3.9. Besides, the figures for the “Ampicillin 5 μg/ml of Methyl Ester of clavulanic acid (M.I.C. by method of Example 42)” value in series [6] (setting [23]), in series [7] (setting [23]) and in series [9] (setting [23]) were 1.9, 3.9 and 3.9, respectively. Moreover, in series [12] (plus 1 μg/ml clavulanic acid methyl ester), the “M.I.C. in the presence of 1.0 μg/ml. clavulanic acid methyl ester” value is less than 0.4 µg/mL. Further, in [13] (plus 1 μg/ml clavulanic acid), the “concentration inhibiting growth in the presence of 1 μg/ml. of clavulanic acid” value is “less than 10 μg/ml”. For the same compound, the “M.I.C. in the presence of 5 μg/ml. clavulanic acid methyl ester” value in series [14] came to 31 µg/mL.

Consider `CC1(C)S[C@@H]2[C@H](NC(=O)C(C(=O)O)c3ccccc3)C(=O)N2[C@H]1C(=O)O` (stereo partly shown) [carbenicillin], for which the results for the “Antibacterial synergism value, +5μg/ml. synergist (M.I.C. by method of Example 42)” value in series [6], in series [7] and in series [9] were 7.8, 15 and 7.8, respectively. Moreover, the MIC is 500 µg/mL in series [6]; 500 µg/mL in [7] (E70, Alone (Tables 7, 8), Example 42 records M.I.C. in μg/ml, read-out: Antibacterial synergism value, Alone (M.I.C. by method of Example 42)); more than 125 µg/mL in [8]; 125 µg/mL in series [9]. The “concentration inhibiting growth when 5 μg/ml. of clavulanic acid is also present” value in [8] is recorded as “less than 12.5 μg/ml”.

In the case of `O=C(Cc1cccs1)N[C@@H]1C(=O)N2C(C(=O)[O-])=C(C[n+]3ccccc3)CS[C@H]12` [cephaloridine], the MIC in series [16] (Proteus mirabilis, 899, agent alone, * = Tailing Point, read-out: Minimum Inhibitory Concentration) was found to be 62 µg/mL (≈ 149 µM); in series [10] it was 15 µg/mL; in series [17] (Staphylococcus aureus, agent alone (Tables 5, 6), inoculum final dilution 0.5 ×10^-2, 37° C overnight, read-out: Minimum Inhibitory Concentration), 3.1 µg/mL; in series [12] (Staphylococcus aureus, antibiotic alone, read-out: minimum inhibitory concentration (M.I.C.)), 1.5 µg/mL. Moreover, the “Minimum Inhibitory Concentration in presence of 5μg/ml clavulanic acid sodium salt” value in series [16] (plus 5 μg/ml clavulanic acid sodium salt) is 7.5 µg/mL; in series [10] (setting [24]), 3.7 µg/mL; in series [17] (setting [24]), less than 0.03 µg/mL. For the same compound, the “M.I.C. in the presence of 1.0 μg/ml. clavulanic acid methyl ester” value in series [12] was less than 0.03 µg/mL.

Turning to `COC(=O)[C@H]1/C(=C/CO)O[C@@H]2CC(=O)N21` [clavulanic acid methyl ester], in [18], the “antibacterial activity in broth” value was “broad spectrum activity but of a lower order than shown by clavulanic acid”. The MIC was more than 10 µg/mL in series [8] and more than 100 µg/mL in [4]. Moreover, in [19] (1 mg/ml, 37° C, 0.05M phosphate buffer pH 7, followed over 2 hours by paper chromatography), the “conversion of the ester to clavulanic acid” value was “Slow conversion of the ester to clavulanic acid”. For the same compound, the “hydrolysis to clavulanic acid” value in series [19] (water buffered to pH7) is “slowly hydrolyze to clavulanic acid”.

Turning to `O=C(O)[C@H]1/C(=C/CO)O[C@@H]2CC(=O)N21` [clavulanic acid, Z-(2R,5R)-3-(β-hydroxyethylidene)-7-oxo-4-oxa-1-azabicyclo[3,2,0]heptane-2-carboxylic acid], in [20], the “mode of inhibition of the β-lactamase of Escherichia coli” value is “progressively and irreversibly inhibits”. In addition, in series [13], the MIC was more than 5 µg/mL.
